Experimental data published in publication PMC5603227 (ChemMedChem, 2017).
≈ marks a conversion by molar mass, not a printed value. Where “and” joins values, the source holds several entries; their conditions need not be identical. Equal values may be shown once. Read-outs that look alike come from different tables or passages of the source.

What was measured:
[1] = tested on: Mycobacterium tuberculosis H37Rv; assay: Microplate alamar blue assay; format: cell-based
[2] = tested on: HepG2 cells; assay: cells; format: cell-based, human
[3] = tested on: Mtb H37Rv in infected THP-1 cells; assay: Intracellular activity in infected THP-1 cells; format: cell-based; details: Mycobacterium tuberculosis, read-out: MIC against intracellular Mtb
[4] = tested on: Mycobacterium avium; assay: MIC against non-tuberculous mycobacteria; format: cell-based; details: read-out: MIC M. avium
[5] = tested on: THP-1 human monocytic cell line; assay: THP-1 cytotoxicity; details: macrophage cytotoxicity relative to intracellular MIC
[6] = tested on: Caco-2 cell monolayer; details: human
[7] = in vitro; details: plasma
[8] = in vitro; details: human; for Papp A→B at 1 h / Papp A→B at 2 h / Papp B→A at 1 h / Papp B→A at 2 h: Caco-2; for efflux ratio: Caco-2, Caco-2 Efflux Ratio (average)
[9] = in vitro; details: human; for microsomal CLint: s9; for half-life: s9, Human liver S9 Microsomes T ½
[10] = target: CYP2B6 (Homo sapiens, UniProt P20813); assay: biochemical
[11] = target: CYP2C8 (Homo sapiens, UniProt P10632); assay: biochemical
[12] = target: CYP2C9 (Homo sapiens, UniProt P11712); assay: biochemical
[13] = target: CYP2C19 (Homo sapiens, UniProt P33261); assay: biochemical
[14] = target: CYP2D6 (Homo sapiens, UniProt P10635); assay: biochemical
[15] = target: CYP3A4 (Homo sapiens, UniProt P08684); assay: biochemical; details: Cytochrome P450 Inhibition IC50 CYP3A4
[16] = Relative aqueous solubility by turbidity in 7H9/ADC/Tween medium; details: 200 μM highest concentration tested
[17] = Homo sapiens, HepG2, read-out: IC50 HepG2 Gal, galactose medium
[18] = Homo sapiens, HepG2, read-out: IC50 HepG2 Glu, glucose medium

CYP3A4, sequence (P08684 whole entry): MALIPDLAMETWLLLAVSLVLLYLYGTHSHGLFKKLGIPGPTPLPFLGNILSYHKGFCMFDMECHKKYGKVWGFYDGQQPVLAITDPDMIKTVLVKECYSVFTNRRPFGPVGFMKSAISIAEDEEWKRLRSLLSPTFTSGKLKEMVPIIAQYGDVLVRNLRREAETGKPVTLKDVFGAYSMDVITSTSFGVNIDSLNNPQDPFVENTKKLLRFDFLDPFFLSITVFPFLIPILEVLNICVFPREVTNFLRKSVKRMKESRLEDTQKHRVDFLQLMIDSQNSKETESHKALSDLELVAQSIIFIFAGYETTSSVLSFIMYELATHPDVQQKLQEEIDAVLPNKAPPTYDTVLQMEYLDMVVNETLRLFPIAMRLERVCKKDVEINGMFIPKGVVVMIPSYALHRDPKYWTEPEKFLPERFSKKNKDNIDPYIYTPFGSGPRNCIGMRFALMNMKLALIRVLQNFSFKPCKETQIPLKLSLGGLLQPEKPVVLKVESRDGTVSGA
CYP2C8, sequence (P10632 whole entry): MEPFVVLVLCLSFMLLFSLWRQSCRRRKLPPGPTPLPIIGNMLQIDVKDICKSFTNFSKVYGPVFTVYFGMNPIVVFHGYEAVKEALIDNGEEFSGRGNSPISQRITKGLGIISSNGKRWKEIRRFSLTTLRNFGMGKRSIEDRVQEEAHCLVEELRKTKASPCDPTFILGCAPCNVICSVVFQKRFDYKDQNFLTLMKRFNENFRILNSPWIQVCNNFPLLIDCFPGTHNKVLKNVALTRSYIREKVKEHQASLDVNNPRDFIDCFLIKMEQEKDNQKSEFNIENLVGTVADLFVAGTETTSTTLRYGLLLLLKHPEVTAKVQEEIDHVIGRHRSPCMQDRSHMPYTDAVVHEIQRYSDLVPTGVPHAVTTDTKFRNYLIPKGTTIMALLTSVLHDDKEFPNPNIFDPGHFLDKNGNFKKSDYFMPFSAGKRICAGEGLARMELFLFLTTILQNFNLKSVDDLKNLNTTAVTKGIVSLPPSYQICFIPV
CYP2C9, sequence (P11712 whole entry): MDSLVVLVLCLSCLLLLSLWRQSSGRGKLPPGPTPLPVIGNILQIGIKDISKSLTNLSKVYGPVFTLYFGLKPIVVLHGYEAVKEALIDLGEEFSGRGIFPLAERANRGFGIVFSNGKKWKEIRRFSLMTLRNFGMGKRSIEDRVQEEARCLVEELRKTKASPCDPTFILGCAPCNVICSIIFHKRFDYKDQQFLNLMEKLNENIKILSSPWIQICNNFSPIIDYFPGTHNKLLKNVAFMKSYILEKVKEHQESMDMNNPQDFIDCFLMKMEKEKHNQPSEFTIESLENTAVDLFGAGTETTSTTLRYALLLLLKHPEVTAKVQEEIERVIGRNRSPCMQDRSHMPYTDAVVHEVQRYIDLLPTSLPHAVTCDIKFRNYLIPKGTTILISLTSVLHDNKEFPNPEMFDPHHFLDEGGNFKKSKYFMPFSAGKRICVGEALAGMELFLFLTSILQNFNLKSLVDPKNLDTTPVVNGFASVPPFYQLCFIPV
CYP2C19, sequence (P33261 whole entry): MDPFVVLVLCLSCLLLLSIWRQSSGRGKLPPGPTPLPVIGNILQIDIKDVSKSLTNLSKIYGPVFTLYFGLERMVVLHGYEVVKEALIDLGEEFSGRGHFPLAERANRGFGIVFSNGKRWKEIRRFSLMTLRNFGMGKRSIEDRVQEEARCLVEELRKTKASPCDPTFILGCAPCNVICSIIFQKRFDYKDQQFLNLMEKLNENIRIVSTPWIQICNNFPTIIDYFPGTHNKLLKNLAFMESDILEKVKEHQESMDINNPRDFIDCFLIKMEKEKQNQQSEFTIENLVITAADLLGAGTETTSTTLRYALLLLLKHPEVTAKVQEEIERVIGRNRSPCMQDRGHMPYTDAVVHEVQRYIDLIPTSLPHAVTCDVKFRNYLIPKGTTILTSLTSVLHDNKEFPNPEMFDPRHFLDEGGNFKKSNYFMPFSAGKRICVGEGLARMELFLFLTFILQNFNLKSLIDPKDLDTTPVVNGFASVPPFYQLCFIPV
CYP2B6, sequence (P20813 whole entry): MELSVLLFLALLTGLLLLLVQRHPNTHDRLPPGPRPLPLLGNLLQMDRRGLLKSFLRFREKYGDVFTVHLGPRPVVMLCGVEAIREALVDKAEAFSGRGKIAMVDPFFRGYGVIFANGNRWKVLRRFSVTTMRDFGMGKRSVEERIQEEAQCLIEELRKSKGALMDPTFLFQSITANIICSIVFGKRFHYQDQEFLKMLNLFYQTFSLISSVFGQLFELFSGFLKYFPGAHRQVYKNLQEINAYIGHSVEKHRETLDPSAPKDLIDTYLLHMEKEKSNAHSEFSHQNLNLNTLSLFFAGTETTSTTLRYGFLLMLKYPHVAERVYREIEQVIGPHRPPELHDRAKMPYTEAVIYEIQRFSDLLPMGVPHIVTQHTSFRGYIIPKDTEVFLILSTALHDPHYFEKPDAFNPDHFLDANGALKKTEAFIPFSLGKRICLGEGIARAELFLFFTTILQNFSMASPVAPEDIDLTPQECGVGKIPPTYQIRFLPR
CYP2D6, sequence (P10635 whole entry): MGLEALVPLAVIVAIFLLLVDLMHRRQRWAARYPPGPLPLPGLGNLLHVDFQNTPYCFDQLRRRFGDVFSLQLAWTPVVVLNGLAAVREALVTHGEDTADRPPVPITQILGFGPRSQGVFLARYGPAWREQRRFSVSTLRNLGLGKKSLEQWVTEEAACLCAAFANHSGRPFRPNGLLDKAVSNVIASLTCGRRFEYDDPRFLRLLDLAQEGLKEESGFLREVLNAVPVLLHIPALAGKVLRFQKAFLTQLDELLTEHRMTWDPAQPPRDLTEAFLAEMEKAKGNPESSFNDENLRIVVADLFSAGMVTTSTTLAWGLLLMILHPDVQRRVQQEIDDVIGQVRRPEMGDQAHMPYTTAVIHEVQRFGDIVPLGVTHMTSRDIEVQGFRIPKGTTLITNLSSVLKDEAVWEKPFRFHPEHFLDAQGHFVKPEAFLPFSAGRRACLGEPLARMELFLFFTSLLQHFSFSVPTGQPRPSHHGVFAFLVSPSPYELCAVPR

## Cc1ccn2c(C(=O)NCc3ccc(S(F)(F)(F)(F)F)cc3)c(C)nc2c1 [Compound 13, 2,7-Dimethyl-N-(4-(pentafluoro-λ^6-sulfanyl)benzyl)imidazo[1,2-a]pyridine-3-carboxamide]
[1]
  MIC: < 0.1 µM
[2]; [17]
  IC50: > 25 µM
[2]; [18]
  IC50: > 25 µM
[3]
  MIC: < 0.01 µM

## Cc1ccn2c(C(=O)NCc3cccc(S(F)(F)(F)(F)F)c3)c(C)nc2c1 [Compound 14, 2,7-Dimethyl-N-(3-(pentafluoro-λ^6-sulfanyl)benzyl)imidazo[1,2-a]pyridine-3-carboxamide]
[2]; [17]
  IC50: > 25 µM
[2]; [18]
  IC50: > 25 µM
[4]
  MIC: 200 µM (≈ 81.1 µg/mL)

## Cc1ccc2nc(C)c(C(=O)NCc3ccc(S(F)(F)(F)(F)F)cc3)n2c1 [Compound 15, 2,6-Dimethyl-N-(4-(pentafluoro-λ^6-sulfanyl)benzyl)imidazo[1,2-a]pyridine-3-carboxamide]
[1]
  MIC: < 0.1 µM
[2]; [17]
  IC50: > 25 µM
[2]; [18]
  IC50: > 25 µM
[3]
  MIC: < 0.01 µM

## Cc1ccc2nc(C)c(C(=O)NCc3cccc(S(F)(F)(F)(F)F)c3)n2c1 [Compound 16, 2,6-Dimethyl-N-(3-(pentafluoro-λ^6-sulfanyl)benzyl)imidazo[1,2-a]pyridine-3-carboxamide]
[1]
  MIC: < 0.1 µM
[2]; [17]
  IC50: > 25 µM
[2]; [18]
  IC50: > 25 µM

## CCc1nc2ccc(Cl)cn2c1C(=O)NCc1ccc(S(F)(F)(F)(F)F)cc1 [Compound 17, 6-Chloro-2-ethyl-N-(4-(pentafluoro-λ^6-sulfanyl)benzyl)imidazo[1,2-a]pyridine-3-carboxamide]
[2]; [17]
  IC50: > 25 µM
[2]; [18]
  IC50: > 25 µM
[3]
  MIC: < 0.01 µM
[5]
  therapeutic window: > 100

## CCc1nc2ccc(Cl)cn2c1C(=O)NCc1cccc(S(F)(F)(F)(F)F)c1 [Compound 18, 6-Chloro-2-ethyl-N-(3-(pentafluoro-λ^6-sulfanyl)benzyl)imidazo[1,2-a]pyridine-3-carboxamide]
[2]; [17]
  IC50: > 25 µM
[2]; [18]
  IC50: > 25 µM
[6]
  Caco-2 Efflux Ratio (average): 3.16
[7]
  fraction unbound: 0.001
[8]
  Papp A→B at 1 h: 1.09 ×10⁻⁶ cm/s
  Papp A→B at 2 h: 1.99 ×10⁻⁶ cm/s
  Papp B→A at 1 h: 3.65 ×10⁻⁶ cm/s
  Papp B→A at 2 h: 5.61 ×10⁻⁶ cm/s
  efflux ratio: 3.2
[9]
  microsomal CLint: 89.7 µL/min/mg
  half-life: 25.8 min
[10]
  IC50: 8.4 µM
[11]
  IC50: 14.4 µM
[12]
  IC50: 10.4 µM
[13]
  IC50: 10.6 µM
[14]
  IC50: 6.5 µM
[15]
  IC50: 8.4 µM and > 20 µM

## Cc1cn2c(C(=O)NCc3ccc(S(F)(F)(F)(F)F)cc3)c(C)nc2s1 [Compound 19, 2,6-Dimethyl-N-(4-(pentafluoro-λ^6-sulfanyl)benzyl)imidazo[2,1-b]thiazole-5-carboxamide]
[1]
  MIC: < 0.1 µM
[2]; [17]
  IC50: > 25 µM
[2]; [18]
  IC50: > 25 µM
[4]
  MIC: 200 µM (≈ 82.3 µg/mL)
[6]
  Caco-2 Efflux Ratio (average): 0.988
other
  Human liver S9 Microsomes T ½: 13.3 min
[7]
  fraction unbound: 0.003
[8]
  Papp A→B at 1 h: 6.35 ×10⁻⁶ cm/s
  Papp A→B at 2 h: 12.1 ×10⁻⁶ cm/s
  Papp B→A at 1 h: 8.35 ×10⁻⁶ cm/s
  Papp B→A at 2 h: 8.1 ×10⁻⁶ cm/s
  efflux ratio: < 1
[9]
  microsomal CLint: 175 µL/min/mg
  half-life: 13.5 min
[10]
  IC50: > 20 µM
[11]
  IC50: > 20 µM
[12]
  IC50: 14 µM
[13]
  IC50: 13.5 µM
[14]
  IC50: 13.4 µM
[15]
  IC50: > 20 µM

## Cc1cn2c(C(=O)NCc3cccc(S(F)(F)(F)(F)F)c3)c(C)nc2s1 [Compound 20, 2,6-Dimethyl-N-(3-(pentafluoro-λ^6-sulfanyl)benzyl)imidazo[2,1-b]thiazole-5-carboxamide]
[2]; [17]
  IC50: 14 µM
[2]; [18]
  IC50: > 25 µM
[2]; read-out: IC50 HepG2 Gal, galactose medium
  IC50: 14.1 µM

## NNC(=O)c1ccncc1 [INH, Isoniazid, reference compound]
[3]
  MIC: 0.37 µM (≈ 0.0507 µg/mL)

## CC(=O)NC[C@H]1CN(c2ccc(N3CCOCC3)c(F)c2)C(=O)O1 [LIN, linezolid, reference compound]
[2]; [17]
  IC50: > 25 µM
[2]; [18]
  IC50: > 25 µM

## CC/C(=C(/CC)c1ccc(O)cc1)c1ccc(O)cc1 [diethylstilbestrol]
[16]
  Aq. sol: 125 µM
